The results in this text go back to PubChem BioAssay (NCI).

Structures are written as SMILES.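 Tested at 5 concentrations; 48 h exposure; 96-well plates; endpoints linearly interpolated, else capped at highest concentration. Abbreviation: GI50, concentration required for 50% inhibition of growth. The concentration for full growth arrest is given as TGI.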

Test in all cases: NCI tumour cell line growth inhibition, 48 h
For assay [1], the system named is KM12 colon.
Assay [2] deals with LOX IMVI melanoma.
In assay [3] the test system is MCF7 breast.
The test system of assay [4] is NCI/ADR-RES ovarian.
Assay [5] concerns OVCAR-3 ovarian.
Assay [6] relates to OVCAR-8 ovarian.
Assay [7] concerns SW-620 colon.
Assay [8] concerns UO-31 renal.
The test system of assay [9] is DU-145 prostate.
The test system of assay [10] is TK-10 renal.

As to `CSc1nc(NC2OC(CO)C(O)C(O)C2O)c(N)c(=O)[nH]1` (configuration not stated), the TGI in assay [1], in assay [2], in assay [3], in assay [4], in assay [5] and in assay [6] was greater than 100 µM each time. The TGI in assay [7] and in assay [8] was greater than 100 µM throughout.
As to `COc1ccc([C@H]2C=C(c3cc(F)c(Cl)cc3Cl)N=c3s/c(=C\c4ccc(-c5ccc(Cl)cc5Cl)o4)c(=O)n32)cc1`, the TGI in assay [9], in assay [1], in assay [2], in [3], in [4] and in assay [6] was greater than 100 µM in each case. Further, the TGI in [7], in [10] and in assay [8] was greater than 100 µM throughout.
With `FC(F)(F)c1ccc(N=NN2CCCC2)cc1`, the TGI in assay [9] is greater than 100 µM; in assay [1], 65.2 µM; in assay [2], greater than 100 µM; in assay [3], greater than 100 µM; in assay [5], greater than 100 µM; in assay [7], greater than 100 µM. The TGI in [10] and in assay [8] was greater than 100 µM in each case.
As for `O=[N+]([O-])c1cnccc1-n1nnc2ccccc21`, the TGI in assay [1] was 40.7 µM; in [2] it was 32.8 µM; in assay [3] it was 36.5 µM; in assay [4] it was 63.4 µM; in assay [5], greater than 31.6 µM; in assay [6], 50.8 µM. The values for the TGI in assay [7] and in assay [8] were 52 µM and greater than 86.2 µM, respectively.
For `O=c1n(CC2CO2)c2ccccc2n1CC1CS1` (configuration not stated), the TGI in assay [1], in [2], in [5], in assay [6], in [7] and in assay [10] was greater than 100 µM each time. Also, in assay [8], the TGI was greater than 100 µM.
Take `COc1ccc(-c2nc3ccccc3c(=O)[nH]2)cc1OC`: the TGI is greater than 100 µM in [9]; greater than 100 µM in [1]; greater than 100 µM in assay [3]; greater than 100 µM in assay [4]; greater than 100 µM in assay [5]; 67.5 µM in assay [6]. Also, the TGI in [7] and in assay [8] was greater than 100 µM each time.
On to `COc1ccc(Nc2cnc3cc(N)ccc3n2)cc1OC`, for which the TGI in assay [1], in assay [2], in [5], in assay [6], in assay [7] and in [10] was greater than 100 µM each time. The same compound had a TGI in assay [8] greater than 100 µM.
In the case of `COc1cc(/C=C2\CCCC3=C2N=C2SC=NN2C3c2cc(OC)c(OC)c(OC)c2)cc(OC)c1OC` (configuration not stated), the GI50 was 3.97 µM in [9]; 3.82 µM in assay [3]; 3.45 µM in [4]; 3.02 µM in assay [5]; 3.23 µM in assay [6]; 4.19 µM in assay [10]. In addition, the TGI in assay [9] was greater than 100 µM; in [3] it was greater than 100 µM; in assay [4] it was greater than 100 µM; in [5] it was 9.32 µM; in assay [6], 29.8 µM; in [10] it was 47.6 µM.
For `[B]C(=O)NC(CC(C)C)C(=O)NC1c2ccsc2C(=O)C1O` (configuration not stated) (tested in a mixture with another compound), the TGI in [9], in assay [1], in [2], in [3], in assay [4] and in [6] was greater than 100 µM in each case. In addition, the TGI in [7], in [10] and in assay [8] was greater than 100 µM throughout.
With `COc1ccc(OC/C(N=Cc2cccnc2)=N/NC(=O)c2ccncc2)cc1`, the TGI in assay [9], in [1], in assay [2], in assay [3], in assay [4] and in [5] was greater than 100 µM each time. Besides, the TGI in [6], in assay [7] and in assay [10] was greater than 100 µM in each case.
Take `FC1(F)SC2CCCCCCCCCCC2C1(F)F` (configuration not stated): the TGI was greater than 100 µM in assay [9]; 31.6 µM in assay [2]; 44.2 µM in assay [3]; greater than 100 µM in assay [4]; 39.1 µM in assay [5]; greater than 100 µM in [6]. In addition, the TGI in assay [10] and in assay [8] was greater than 100 µM throughout.
Take `Cc1cn(C2CC(/[N+]([O-])=N\Nc3ccc([N+](=O)[O-])cc3)C(CO)O2)c(=O)[nH]c1=O` (configuration not stated): the TGI in assay [9], in assay [1], in assay [2], in [4], in [5] and in [6] was greater than 100 µM in each case. The TGI in [7], in assay [10] and in assay [8] was greater than 100 µM each time.
`CC(C)N=C(NC#N)NS(=O)(=O)c1cnccc1NC1CCCCCCC1`: the TGI in assay [9], in assay [1], in [3], in [4], in assay [5] and in [6] was greater than 100 µM in each case. For the same compound, the TGI in assay [7], in assay [10] and in assay [8] was greater than 100 µM throughout.
In the case of `COc1ccccc1N1C(=O)/C(=C\c2ccccc2)SC1c1cc(OC)c(OC)c(OC)c1` (configuration not stated), the TGI was greater than 100 µM in assay [1]; 50.3 µM in assay [2]; greater than 100 µM in assay [3]; greater than 100 µM in [4]; greater than 100 µM in [6]; greater than 100 µM in assay [10]. The compound also came in with a TGI in [8] greater than 100 µM.
Take `NCCCCNCCCNC(=O)c1csc(-c2nc(CCN)sc2Cl)n1`: the TGI in [9], in assay [1], in assay [3], in assay [4], in assay [5] and in [6] was greater than 100 µM each time. In addition, the TGI in [7], in assay [10] and in assay [8] was greater than 100 µM each time.
